Patent US20160047819A1, “METHOD FOR DIAGNOSING VAGINAL INFECTIONS” (priority 2013, published 2016)

System: vaginal proteome (human proteins in vaginal fluid)
Test: MS/MS proteomic analysis of vaginal fluid pools, BV-affected women before (BV) and after rifaximin/placebo treatment: human proteins
Assay type: in vivo
Method: Proteomic analysis was performed on 9 pools of vaginal isolates, grouped according to the status of the BV infection: • H pool (from 41 healthy women); BV pool (from 39 BV-affected women); • A-R pool (from 2 women who were in remission after rifaximin treatment-group A); • A-N pool (from 8 women who were not in remission after rifaximin treatment-group A); • B-R pool (from 5 women who were in remission after rifaximin treatment-group B); • B-N pool (from 5 women who were not in remission after rifaximin treatment-group B); • C-R pool (from 4 women who were in remission after rifaximin treatment-group C); • C-N (from 5 women who were not in remission after rifaximin treatment-group C); • D-N (from 10 women who were not in remission after placebo treatment-group D). Scheme of the vaginal fluids collected for testing the diagnostic method is represented in FIG. 1.
In these figures are reported the peptides in the fractionated pools of healthy women, women affected by BV and peptides of women treated with rifaximin. The treatment with rifaximin was at dosage of 100 mg/day for 5 days; (remission, A-R; no remission, A-N), 25 mg/5 days (remission, B-R; no remission, B-N), 100 mg/2 days (remission, C-R; no remission, C-N), and placebo for 5 days (D-N). Two types of comparisons were carried out: (i) between fractionated pools of proteins from vaginal fluid of healthy women (HF) versus fractionated pool of proteins from vaginal fluid of women affected by bacterial vaginosis (BVF); (ii) between whole pools of proteins from vaginal fluid of women affected by BV treated by administering different doses of rifaximin or placebo before (BV) and after (A-R, A-N, B-R, B-N, C-R, C-N, D-N) treatment. Fractioned pools of proteins are obtained, e.g., by separating the proteins by separation on membrane filtration with different membrane porosity, prior to MS/MS analysis.
Nine volumes of acetone: HCl (10:1) were added to the supernatant of the vaginal rinsing and proteins were precipitated by centrifuging at 12000 g for 10 min. The protein pellet was dissolved in 1 mL of 70% ethanol and the sample was spun at 12000 g for 10 min. One mL of acetone was added and the proteins were further precipitated by centrifugation at 12000 g for 5 min. After removing supernatant, pellet was dried by SpeedVac concentrator (Thermo Savant ISS110, Thermo Fisher Scientific, Waltham, Mass.) and then stored at −20° C.
Protein extract was quantified using the 2-D Quant Kit (GE Healthcare, Uppsala, Sweden) according to the manufacturer's instructions.
Patients who were diagnosed for BV at the study visit V1 were included in a multicentre, double-blind, randomised, placebo-controlled study (EudraCT: 2009-011826-32), that was performed to compare the efficacy of different doses of rifaximin vaginal tablets versus placebo for the treatment of BV. The patients underwent a randomisation visit and were distributed into 4 treatment groups: group A received 100 mg rifaximin vaginal tablet once daily for 5 days (n=10), group B received 25 mg rifaximin vaginal tablet once daily for 5 days (n=10), group C received 100 mg rifaximin vaginal tablet once daily for the first 2 days and placebo vaginal tablet for the remaining 3 days (n=9), group D received placebo vaginal tablet once daily for 5 days (n=10). Study medication was administered intra-vaginally at bedtime. After 7 to 10 days from the end of the therapy a follow-up visit (V3) was performed. Remission was evaluated at V3 according to Amsel's criteria (<3) and Gram stain Nugent score (≦3) (Table 1).
Standardized vaginal rinsings with 2 mL of saline were collected for analysis at V1 and V3 by flushing and re-aspirating the fluid through a 22 Gauge needle in the left, central and right upper vaginal vaults. The vaginal rinsings were subsequently stored at −80° C. until use.
MS/MS analysis was carried out for H and BV pools and for the whole BV, A-R, A-N, B-R, B-N, C-R, C-N and D-N pools containing 50 μg of protein each. […]

For CO[C@H]1/C=C/O[C@@]2(C)Oc3c(C)c(O)c4c(O)c(c5c(nc6cc(C)ccn65)c4c3C2=O)NC(=O)/C(C)=C\C=C\[C@H](C)[C@H](O)[C@@H](C)[C@@H](O)[C@@H](C)[C@H](OC(C)=O)[C@@H]1C [rifaximin], the “Ratio X/H Zyxin (Q15942)” value (pool A-R after treatment) was −3.2, the “Ratio X/H Sciellin (O95171)” value (pool B-N after treatment) was 0.0 and the “Ratio X/H Semenogelin-2 (Q02383)” value (pool B-N after treatment) was −2.3. For the same compound, the “Ratio X/H Serine protease 27 (Q9BQR3)” value (pool B-N after treatment) was 0.0, the “Ratio X/H Serine/threonine-protein kinase ULK1 (O75385)” value (pool B-N after treatment) was 0.0 and the “Ratio X/H Serotransferrin (P02787)” value (pool B-N after treatment) was 0.0. The “Ratio X/H Serpin B3 (P29508)” value (pool B-N after treatment) was 1.8, the “Ratio X/H Serpin B4 (P48594)” value (pool B-N after treatment) was 1.5 and the “Ratio X/H Serpin B5 (P36952)” value (pool B-N after treatment) was 0.0. The “Ratio X/H Serpin B6 (P35237)” value (pool B-N after treatment) was 0.0, the “Ratio X/H Serpin B9 (P50453)” value (pool B-N after treatment) was 0.0 and the “Ratio X/H Serpin B12 (Q96P63)” value (pool B-N after treatment) was −1.8. The “Ratio X/H Serpin B13 (Q9UIV8)” value (pool B-N after treatment) was 1.5, the “Ratio X/H Serum albumin (P02768)” value (pool B-N after treatment) was 0.0 and the “Ratio X/H Serum paraoxonase/arylesterase 1 (P27169)” value (pool B-N after treatment) was 1.7. For the same compound, the “Ratio X/H Small proline-rich protein 3 (Q9UBC9)” value (pool B-N after treatment) was 0.0, the “Ratio X/H Stanniocalcin-1 (P52823)” value (pool B-N after treatment) was 1.7 and the “Ratio X/H Sulfhydryl oxidase 1 (O00391)” value (pool B-N after treatment) was 0.0. For the same compound, the “Ratio X/H Superoxide dismutase [Cu—Zn] (P00441)” value (pool B-N after treatment) was 0.0, the “Ratio X/H Suprabasin (Q6UWP8)” value (pool B-N after treatment) was 7.6 and the “Ratio X/H Syntenin-1 (O00560)” value (pool B-N after treatment) was 2.6. The “Ratio X/H Talin-1 (Q9Y490)” value (pool B-N after treatment) was 0.0, the “Ratio X/H Tctex1 domain-containing protein 2 (Q8WW35)” value (pool B-N after treatment) was −25.1 and the “Ratio X/H Teneurin-3 (Q9P273)” value (pool B-N after treatment) was 12.3. The “Ratio X/H Thioredoxin (P10599)” value (pool B-N after treatment) was 1.5, the “Ratio X/H Transaldolase (P37837)” value (pool B-N after treatment) was 1.6 and the “Ratio X/H Transmembrane protease serine 11D (O60235)” value (pool B-N after treatment) was −1.6. The “Ratio X/H Transthyretin (P02766)” value (pool B-N after treatment) was 0.0, the “Ratio X/H Tumor protein D54 (O43399)” value (pool B-N after treatment) was 0.0 and the “Ratio X/H UTP--glucose-1-phosphate uridylyltransferase (Q16851)” value (pool B-N after treatment) was 0.0. For the same compound, the “Ratio X/H UV excision repair protein RAD23 homolog B (P54727)” value (pool B-N after treatment) was −1.6, the “Ratio X/H Versican core protein (P13611)” value (pool B-N after treatment) was −1.7 and the “Ratio X/H Vinculin (P18206)” value (pool B-N after treatment) was 1.5. For the same compound, the “Ratio X/H Vitamin D-binding protein (P02774)” value (pool B-N after treatment) was −2.0, the “Ratio X/H Werner syndrome ATP-dependent helicase (Q14191)” value (pool B-N after treatment) was 131.2 and the “Ratio X/H Zinc finger protein 185 (O15231)” value (pool B-N after treatment) was 0.0. The “Ratio X/H Zinc finger protein 335 (Q9H4Z2)” value (pool B-N after treatment) was 0.0, the “Ratio X/H Zinc-alpha-2-glycoprotein (P25311)” value (pool B-N after treatment) was 0.0 and the “Ratio X/H Zyxin (Q15942)” value (pool B-N after treatment) was 0.0. For the same compound, the “Ratio X/H Sciellin (O95171)” value (pool B-R after treatment) was 0.0, the “Ratio X/H Semenogelin-2 (Q02383)” value (pool B-R after treatment) was 5.9 and the “Ratio X/H Serine protease 27 (Q9BQR3)” value (pool B-R after treatment) was −2.3. The “Ratio X/H Serine/threonine-protein kinase ULK1 (O75385)” value (pool B-R after treatment) was −4.4, the “Ratio X/H Serotransferrin (P02787)” value (pool B-R after treatment) was −3.9 and the “Ratio X/H Serpin B3 (P29508)” value (pool B-R after treatment) was 4.3. The “Ratio X/H Serpin B4 (P48594)” value (pool B-R after treatment) was 0.0, the “Ratio X/H Serpin B5 (P36952)” value (pool B-R after treatment) was −4.7 and the “Ratio X/H Serpin B6 (P35237)” value (pool B-R after treatment) was 0.0. The “Ratio X/H Serpin B9 (P50453)” value (pool B-R after treatment) was −5.6, the “Ratio X/H Serpin B12 (Q96P63)” value (pool B-R after treatment) was −1.9 and the “Ratio X/H Serpin B13 (Q9UIV8)” value (pool B-R after treatment) was 0.0. For the same compound, the “Ratio X/H Serum albumin (P02768)” value (pool B-R after treatment) was −13.2, the “Ratio X/H Serum paraoxonase/arylesterase 1 (P27169)” value (pool B-R after treatment) was 0.0 and the “Ratio X/H Small proline-rich protein 3 (Q9UBC9)” value (pool B-R after treatment) was 6.6. For the same compound, the “Ratio X/H Stanniocalcin-1 (P52823)” value (pool B-R after treatment) was 113.1, the “Ratio X/H Sulfhydryl oxidase 1 (O00391)” value (pool B-R after treatment) was 1.6 and the “Ratio X/H Superoxide dismutase [Cu—Zn] (P00441)” value (pool B-R after treatment) was −1.5. The “Ratio X/H Suprabasin (Q6UWP8)” value (pool B-R after treatment) was 15.1, the “Ratio X/H Syntenin-1 (O00560)” value (pool B-R after treatment) was −3.1 and the “Ratio X/H Talin-1 (Q9Y490)” value (pool B-R after treatment) was −1.6. The “Ratio X/H Tctex1 domain-containing protein 2 (Q8WW35)” value (pool B-R after treatment) was 4.2, the “Ratio X/H Teneurin-3 (Q9P273)” value (pool B-R after treatment) was −2.3 and the “Ratio X/H Thioredoxin (P10599)” value (pool B-R after treatment) was 3.1. For the same compound, the “Ratio X/H Transaldolase (P37837)” value (pool B-R after treatment) was −1.7, the “Ratio X/H Transmembrane protease serine 11D (O60235)” value (pool B-R after treatment) was 2.6 and the “Ratio X/H Transthyretin (P02766)” value (pool B-R after treatment) was −4.7. For the same compound, the “Ratio X/H Tumor protein D54 (O43399)” value (pool B-R after treatment) was 2.2, the “Ratio X/H UTP--glucose-1-phosphate uridylyltransferase (Q16851)” value (pool B-R after treatment) was 0.0 and the “Ratio X/H UV excision repair protein RAD23 homolog B (P54727)” value (pool B-R after treatment) was −2.2. The “Ratio X/H Uronyl 2-sulfotransferase (Q9Y2C2)” value (pool B-R after treatment) was 2.1, the “Ratio X/H Versican core protein (P13611)” value (pool B-R after treatment) was 2.6 and the “Ratio X/H Vinculin (P18206)” value (pool B-R after treatment) was 0.0. The “Ratio X/H Vitamin D-binding protein (P02774)” value (pool B-R after treatment) was −17.8, the “Ratio X/H Werner syndrome ATP-dependent helicase (Q14191)” value (pool B-R after treatment) was 750.5 and the “Ratio X/H Zinc finger protein 185 (O15231)” value (pool B-R after treatment) was 5.8. The “Ratio X/H Zinc finger protein 335 (Q9H4Z2)” value (pool B-R after treatment) was −1.6, the “Ratio X/H Zinc-alpha-2-glycoprotein (P25311)” value (pool B-R after treatment) was −9.4 and the “Ratio X/H Zyxin (Q15942)” value (pool B-R after treatment) was −5.1.
